Laboratory results taken from the METLIN SMRT retention time set (Domingo-Almenara et al. 2019).

Experiment: gradient 5% acetonitrile 3 min, to 50% in 2 min, to 85% in 15 min, held 3 min, 100 µL/min
Conditions: column: Zorbax Extend-C18 2.1 x 50 mm; eluents: water / acetonitrile, 0.1% formic acid
How it was run: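 Pure standards were analyzed in mixtures of ~100 molecules using HPLC coupled to a quadrupole time-of-flight mass spectrometer, in both positive and negative ionization mode. Separation used a Zorbax Extend-C18 column (2.1 × 50 mm, 1.8 μm) at 100 μL/min, with water and acetonitrile each containing 0.1% formic acid. Dead and dwell volumes were 40 μL and 900 μL, and data were collected over 3 months. Retention time was read from computationally picked adduct peaks, each inspected manually.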

Row | SMILES | RP-LC retention time
1 | Fc1cccc(-c2noc(-c3ccc(NCCCN4CCC(N5CCCCC5)CC4)nc3)n2)c1 | 614 s
2 | CC1CCN(C(=O)c2ccc(OCC3CCCN(C(=O)c4ccc(F)cc4)C3)cc2)CC1 (centres undefined) | 995 s
3 | O=C(NCc1ccco1)C1CC(=O)N(c2ccc3c(c2)CCN3C(=O)C2CCC2)C1 (centres undefined) | 734 s
4 | CN1CCCN(C(=O)CCc2ccc3c(ccn3C)c2)CC1 | 605 s
5 | COc1cc(OC)c(NC(=O)N2CCC(CN3CCCC(C)C3)CC2)cc1Cl (centres undefined) | 630 s
6 | CC(C)n1c(N2CCCN(C(=O)c3ccnn3C)CC2)cc(=O)n(C(C)C)c1=O | 707 s
7 | Cn1nccc1C(=O)N1CCCC1c1cccc(F)c1 (centres undefined) | 758 s
8 | CC(C)CC(=O)Nc1ccc(N2CCN(CC(=O)N(C)C)CC2)cc1C(=O)O | 595 s
9 | CCCNC(=O)N1CC(c2nc(C)no2)C2(CCOCC2)C1 (centres undefined) | 634 s
10 | COc1ccc(C(=O)N2CCN(C(=O)c3nnn4c3COC(c3ccc(F)cc3)C4)CC2)cc1F (centres undefined) | 844 s
11 | CCN1CCN(C(=O)CN2C(=O)COc3ccc(C(=O)N(CC)CC)cc32)CC1 | 581 s
12 | CC(C)NC(=O)N1CCCC(Cn2cnc3cccnc32)C1 (centres undefined) | 610 s
13 | O=C(Nc1ccc2nc(N3CCN(C4CCCCC4)CC3)cc(C(=O)O)c2c1)c1ccccc1Cl | 627 s
14 | COc1ccc(-n2nc3c(c2N)CSC3)cc1 | 629 s
15 | CC(C)n1cnc2cc(CNC(=O)c3ccsc3)ccc21 | 579 s
16 | O=S(=O)(c1ccccc1)N1CCC(c2nc(CCOCC3CC3)no2)C1 (centres undefined) | 896 s
17 | Cn1cc(-c2ccccc2)cc1C(=O)NCCCN1CCOCC1 | 636 s
18 | O=C(c1ccc(Br)o1)N1CCN(c2ccc(=O)n(-c3cccc(Cl)c3)n2)CC1 | 878 s
19 | O=C(CCC1CCCN(c2cc(NC3CC3)ncn2)C1)NCCc1ccncc1 (centres undefined) | 564 s
20 | COC[C@@H]1CN(C(=O)c2cc(C)oc2C)C[C@H]1c1nc(C2CC2)no1 | 815 s
21 | Cc1ccc(NC(=O)N2CCCC2c2c(C)noc2C)c(Cl)c1 (centres undefined) | 872 s
22 | CCCNC(=O)N1CCC(c2cnn(-c3ccccc3)c2)CC1 | 779 s
23 | O=S(=O)(NCC(O)C1CCCCC1)c1cccc2ccccc12 (centres undefined) | 902 s
24 | Cn1nnnc1SCC(=O)N1CCC(C(=O)NCC(F)(F)F)CC1 | 600 s
25 | O=C(NC(c1ccccc1)c1nnc(N2CCOCC2)o1)c1ccccc1F (centres undefined) | 733 s

Row | SMILES | RP-LC retention time
26 | CC(C)CNC(=O)CN1CCN(Cc2cccc(Cl)c2)C1=O | 748 s
27 | Cc1cnc(C(=O)NCC23CCC=C2N(C)C(=O)CC3)cn1 (centres undefined) | 666 s
28 | CC(C)c1noc(COC2CCCN(C(=O)NCc3ccco3)C2)n1 (centres undefined) | 774 s
29 | CCc1nc(-c2cc(S(=O)(=O)NCC(=O)NC3CCCC3)c(C)s2)no1 | 843 s
30 | COCC1CN(C(=O)c2ccc(Cc3c(C)noc3C)o2)CC12CCNCC2 (centres undefined) | 586 s
31 | CC(C(=O)NCCCN1CCCCCC1)n1ccc2cc(S(=O)(=O)N3CCCCCC3)ccc21 (centres undefined) | 604 s
32 | COc1c(C(=O)NC(C)(C)C)sc2cccc(F)c12 | 1110 s
33 | CCOC(=O)C1CCN(C(=O)C2CCN(c3cncnc3N3CCCC3)CC2)CC1 | 629 s
34 | CCOc1ccc(N2C=C(C(=O)N3CCCC3)S(=O)(=O)c3ccc(F)cc32)cc1 | 872 s
35 | Cc1ccc(NC(=O)N2C[C@@H](F)C[C@H]2C(=O)N2CCc3ccccc3C2)c(Cl)c1 | 831 s
36 | COc1ccc(CNC(=O)c2cnc(OC)nc2)c(OC)c1 | 715 s
37 | Cc1cccc(CN2CC=C(C(=O)N3CCN(c4cccc(C)c4)CC3)CC2)c1 | 706 s
38 | COCCn1cc2c3c(cccc31)CN(C(=O)Nc1cccc(Cl)c1)CC2 | 981 s
39 | O=C(c1ccc(OCC2CCCN2C(=O)Cc2ccc(Cl)cc2)cc1)N1CCOCC1 (centres undefined) | 811 s
40 | CC(C(=O)NCCCN1CCN(C2CCCCC2)CC1)n1c(=O)c(C(F)(F)F)nc2ccccc21 (centres undefined) | 639 s
41 | COC(=O)C1=C(CN2CCOCC2)NC(=O)NC1c1ccc(OC)c(OC)c1 (centres undefined) | 571 s
42 | COc1cc(N)c(Cl)cc1C(=O)NC1CN2CCC1CC2 (centres undefined) | 615 s
43 | CCCn1cc(C(=O)NCC(=O)OCC)c(S(=O)(=O)N2CCN(c3cccc(Cl)c3)CC2)n1 | 1060 s
44 | Cc1ccc(C(C)NC(=O)c2cn3c(n2)COCC3)c(C)c1 (centres undefined) | 667 s
45 | COCCN1C(=O)c2ccccc2C(C(=O)N2CCN(Cc3ccccc3)CC2)C1c1cccs1 (centres undefined) | 661 s
46 | O=C(NCc1ccncc1)C1CCCN(c2ncnc3c2oc2ccccc23)C1 (centres undefined) | 579 s
47 | O=C(Nc1ccc(N2CCN(C3CCCCC3)C2=O)nc1)c1ccccc1F | 850 s
48 | CCOC(=O)c1c(C)nc(C)c(C(=O)OCC)c1-c1cccnc1 | 810 s
49 | O=C(C1CCCN(S(=O)(=O)N2CCOCC2)C1)N1CCN(c2ccc(F)cc2)CC1 (centres undefined) | 807 s

The remaining lines, values ahead:

Row | RP-LC retention time | SMILES
50 | 821 s | COc1ccc(-c2cn3c(CC(=O)Nc4ccc(Br)cc4F)csc3n2)cc1OC
51 | 581 s | COc1ccc(CC(=O)NCCc2nc3cccnc3n2C)cc1
52 | 1090 s | Cc1ccc(N2CC(c3noc(-c4cccc(C)c4)n3)CC2=O)cc1 (centres undefined)
53 | 735 s | Cc1ccc(CNC(=O)Cn2ccc3c(SCc4ccc(F)cc4)nccc32)o1
54 | 995 s | CCCCCc1c(C)nn(-c2nc(CC(=O)Nc3nc4ccccc4[nH]3)cs2)c1C
55 | 704 s | CCOc1ccc(NC(=O)c2cnc3c(c2)c(=O)n(C)c(=O)n3C)cc1
56 | 876 s | Cc1cccc(NC(=O)Cn2c(=O)n(-c3ccc(F)cc3)c3ncccc32)c1
57 | 870 s | COc1ccc2[nH]c(C)c(CCNS(=O)(=O)c3cc(OC)c(C)cc3OC)c2c1
58 | 763 s | COc1ccc(/C=C/C(=O)Oc2cc(O)cc(O)c2)cc1
59 | 817 s | O=C(Nc1ncnc2c1CCC2)c1ccc(S(=O)(=O)N2CCCc3ccccc32)cc1
60 | 829 s | COc1ccc(NC(=O)c2cnc(-c3ccc(OC)cc3)nc2-c2ccncc2)cc1
61 | 900 s | CCCn1ccc2sc(C)c(C(=O)NC(C)c3ccccc3)c2c1=O (centres undefined)
62 | 1080 s | CCc1nn2c(CNC(=O)c3ccc(C(C)C)cc3)c(-c3ccccc3)nc2s1
63 | 637 s | Cc1ccccc1NC(=O)CSc1ccc(N2CCCC(C(=O)NC3CC3)C2)nn1 (centres undefined)
64 | 748 s | CC(C)NC(=O)N1CCc2c(c(-c3nc(Cc4ccccc4)no3)nn2C)C1
65 | 976 s | Cc1cccc(-c2noc(CCn3nc(-c4ccc5c(c4)OCO5)ccc3=O)n2)c1
66 | 630 s | CCn1c(CCc2ccccc2NS(=O)(=O)c2c(C)n[nH]c2C)nc2ccccc21
67 | 1300 s | CC(C)Cn1c(=O)c2ccccc2n(Cc2nc(-c3ccc(C(F)(F)F)cc3)no2)c1=O
68 | 667 s | COc1cc(O)ccc1-c1nc2cccc(C)n2c1Nc1ccccc1C
69 | 1150 s | COc1ccccc1-c1nnc(-c2ccc(C)c(S(=O)(=O)N3CCC(C)CC3)c2)o1

Row | RP-LC retention time | SMILES
70 | 1050 s | COc1ccc(NC(=O)CN2CCc3[nH]c4c(C)ccc(F)c4c(=O)c3C2)cc1OC
71 | 693 s | O=C(CCc1c(-c2ccc(F)cc2)nc2ccccn12)N1CCN(c2ccccc2)CC1
72 | 956 s | Cc1ccc(-c2noc(-c3nn(-c4cccc(F)c4)ccc3=O)n2)cc1
73 | 1110 s | CCCOc1ccc(C(=O)Nc2nnc(SCc3nnc(-c4ccccc4C)o3)s2)cc1
74 | 937 s | COc1ccc(-c2nnc(-c3ccc(C)c(S(=O)(=O)N4CCCC4)c3)o2)cc1OC
75 | 790 s | CCCc1noc(-c2cccnc2N2CCCN(Cc3cc(C)ccc3C)CC2)n1
76 | 615 s | Cc1ccc(C)c(NC(=O)N2CCN(c3cc(-c4ccncc4)[nH]n3)CC2)c1
77 | 676 s | COc1ccccc1C(=O)Nc1c(-c2ccc(F)cc2)nc2ccccn12
78 | 1150 s | CC(C)Oc1ccc(-c2noc(Cn3ncn4nc(-c5cccs5)cc4c3=O)n2)cc1
79 | 1060 s | Cc1cccc(-c2noc(CN3N=NC4C(=O)N(c5cccc(Cl)c5)C(=O)C43)n2)c1 (centres undefined)
80 | 1020 s | Cc1ccccc1Cn1nc2ccc(S(=O)(=O)N3CCCCCC3)cn2c1=O
81 | 726 s | Cn1c(=O)n(C)c2cc(NS(=O)(=O)c3ccc(F)cc3)c(Cl)cc21
82 | 702 s | CN(Cc1ccccc1)C(=O)CC(=O)Nc1ccc2nc3n(c(=O)c2c1)CCCCC3
83 | 604 s | Cc1cc(N2CCN(C)CC2)nc2ccc(NC(=O)Nc3ccccc3Cl)cc12
84 | 781 s | CC(=O)Nc1cc([N+](=O)[O-])c(N(C)S(=O)(=O)c2ccccc2)c2ccccc12
85 | 946 s | COc1cccc(-c2noc(C3CCCN3C(=O)Nc3ccc(OC)c(F)c3)n2)c1 (centres undefined)
86 | 1060 s | CCOc1cccc(-c2noc(Cn3c(=O)n(Cc4ccc(OC)cc4)c(=O)c4sccc43)n2)c1
87 | 1310 s | O=C(N1CC(Oc2ccc(-c3nc(-c4ccccc4)no3)cc2)C1)C1(c2ccccc2)CC1
88 | 737 s | CC(=O)Nc1ccc(-c2noc(C3CCN(C(=O)c4ccc5cc[nH]c5c4)CC3)n2)cc1
89 | 1170 s | Clc1ccc(-c2csc(NCc3ccccc3)n2)cc1
